Experimental findings from patent US9636335B2, “Heteroaryl compounds as 5-HT4 receptor ligands” (Suven Life Sciences Ltd, priority 2011, dated 2017) are described below.

Each structure is given as a SMILES string. Counter-ions that a name gives are not always drawn.

The nature of data set [1]: Rodent pharmacokinetic study. It is filed as in vivo, Male Wister rats. As to conditions: plasma. The method, then: Three to five animals were housed in each cage. […] Animals were fasted over night before oral dosing (p.o) and food pellets were allowed 2 hours post dosing, whereas intravenous dosing food and water were provided as ad libitum. Three rats were dosed with compounds of formula (I) (10 mg/kg) orally and intravenously (05 mg/kg).
At each time point blood was collected through jugular vein and immediately replenish with an equivalent volume of normal saline from freely moving rats. Collected blood was transferred into a labeled eppendr off containing 10 μL of heparin as anticoagulant. Typically blood samples were collected as following time points: Pre dose, 0.08 (only i.v.), 0.25, 0.5, 1, 2, 4, 6, 8, and 24 hours post dose (n=3). Blood was centrifuged at 4000 rpm for 10 minutes. Plasma was prepared and stored frozen at −20° C. until analysis.
Pharmacokinetic parameters Cmax, Tmax, AUCt, T1/2 and Bioavailability were calculated by non-compartmental model using standard non-compartmental model by using WinNonLin 5.0.1 or Phoenix WinNonlin 6.2 version Software package.

The target in data set [2] is recombinant human 5-HT4 receptor (Homo sapiens (Human), UniProt Q13639). The data set is described as follows: Determination of EC50 values for 5-HT4 receptor (CHO cells, pCRE-Luc reporter). It is filed as cell-based. As to conditions: CHO cells expressing human 5-HT4 receptor, luciferase activity, 4 hours incubation. The method, then: A stable CHO cell line expressing recombinant human 5-HT4 receptor and pCRE-Luc reporter system was used for cell-based assay. The assay offers a non-radioactive based approach to determine binding of a compound to GPCRs. In this specific assay, the level of intracellular cyclic AMP which is modulated by activation or inhibition of the receptor is measured. The recombinant cells harbor luciferase reporter gene under the control of cAMP response element.
The above cells were grown in 96 well clear bottom white plates in Hams F12 medium containing 10% fetal bovine serum (FBS). Prior to the addition of compounds or standard agonist, cells were serum starved overnight. Increasing concentrations of test compounds were added in OptiMEM medium to the cells. The incubation was continued at 37° C. in CO2 incubator for 4 hours. Medium was removed and cells were washed with phosphate buffered saline. The cells were lysed and luciferase activity was measured in a Luminometer. Luminescence units were plotted against the compound concentrations using Graphpad software.

Data set [3] in a line: Rodent brain penetration study. As to conditions: male, Wistar, rat, po, 10 mg/kg.
Description: Three animals were housed in each cage. Animals were given water and food ad libitum throughout the experiment, and maintained on a 12 hours light/dark cycle.
Brain penetration was determined in discrete manner in rats. […] After acclimatization the rats were grouped according to the weight in each group, 3 animals were kept in individual cage and allowed free access to food and water. At each time point (0.50, 1, and 2 hours) n=3 animals were used.
The compounds of formula (I) was suitably preformulated and administered orally at (free base equivalent) 10 mg/kg. Blood samples were removed via, cardiac puncture by using isoflurane anesthesia the animals were sacrificed to collect brain tissue. […] The concentrations of the NCE compound in plasma and Brain were determined using LC-MS/MS method.
Extent of brain-plasma ratio was calculated (Cb/Cp).
Data set [4] has as its system Male Wister rats. The data set is described as follows: Object recognition task model. It is filed as in vivo. As to conditions: p.o., rat. The method, then:
(§1) The cognition enhancing properties of compounds of this invention were estimated by using this model.
Male Wister rats (230-280 grams) were used as experimental animals. Four animals were housed in each cage. […] Also the rats were habituated to individual arenas for 1 hour in the absence of any objects.
One group of 12 rats received vehicle (1 mL/Kg) orally and another set of animals received compound of the formula (I) either orally or i.p., before one hour of the familiar (T1) and choice trial (T2).
The experiment was carried out in a 50×50×50 cm open field made up of acrylic. In the familiarization phase, (T1), the rats were placed individually in the open field for 3 minutes, in which two identical objects (plastic bottles, 12.5 cm height×5.5 cm diameter) covered in yellow masking tape alone (a1 and a2) were positioned in two adjacent corners, 10 cms from the walls. After 24 hours of the (T1) trial for long-term memory test, the same rats were placed in the same arena as they were placed in T1 trial. Choice phase (T2) rats were allowed to explore the open field for 3 minutes in presence of one familiar object (a3) and one novel object (b) (Amber color glass bottle, 12 cm high and 5 cm in diameter). Familiar objects presented similar textures, colors and sizes. During the T1 and T2 trial, explorations of each object (defined as sniffing, licking, chewing or having moving vibrissae whilst directing the nose towards the object at a distance of less than 1 cm) were recorded separately by stopwatch. […] T1 is the total time spent exploring the familiar objects (a1+a2). T2 is the total time spent exploring the familiar object and novel object (a3+b).

The subject of data set [5] is rats. The data set is described as follows: Radial arm maze, reversal of scopolamine induced amnesia. As to conditions: p.o., rat. It is filed as in vivo.
Description: as §1

The mark [6] stands for this setting: male, Wistar, rat, po, 10 mg/kg.
The mark [7] stands for this setting: Wistar/Male rat, 5 mg/kg, intravenous (bolus).
Setting [8] is: Wistar/Male rat, 10 mg/kg oral vs 5 mg/kg intravenous.
[9] abbreviates: Wistar/Male rat, 10 mg/kg, oral (gavage).

recombinant human 5-HT4 receptor, sequence (Q13639 whole entry): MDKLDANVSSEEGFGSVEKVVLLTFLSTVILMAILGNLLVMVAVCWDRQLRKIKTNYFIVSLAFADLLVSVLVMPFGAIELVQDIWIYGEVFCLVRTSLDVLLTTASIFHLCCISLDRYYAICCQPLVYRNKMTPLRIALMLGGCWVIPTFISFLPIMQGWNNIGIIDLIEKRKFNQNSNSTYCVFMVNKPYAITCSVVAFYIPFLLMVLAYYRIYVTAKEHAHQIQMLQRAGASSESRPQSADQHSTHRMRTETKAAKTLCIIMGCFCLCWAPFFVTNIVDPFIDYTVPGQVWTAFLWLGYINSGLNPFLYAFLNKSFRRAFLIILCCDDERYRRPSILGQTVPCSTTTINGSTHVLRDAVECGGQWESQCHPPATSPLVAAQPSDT

One may read the AUC(0-t) as exposure summed from dosing to a finite time, without extrapolation to infinity. A lower AUC(0-t) goes with less exposure. Broadly, the Cmax is the peak of the concentration-time curve. Broadly, the Tmax is the time from dosing to the highest level. What is called half-life is the time needed for the level to fall by half in the phase considered. What is called EC50 is the concentration giving half of the maximal effect. In the case of `Nc1c(Cl)cc(-c2nnc(CC3CCN(C4CCCC4)CC3)o2)c2c1CCCO2.O=C(O)C(=O)O` [Example 21, 6-Chloro-8-[5-(1-cyclopentyl-piperidin-4-ylmethyl)-[1,3,4]oxadiazol-2-yl]-chroman-5-ylamine oxalate salt], in data set [1] (male, Wistar, rat, iv, 5 mg/kg), the exposure AUC(0-t) was 0.876 ± 0.065 µg·h/mL, the Cmax is 0.75 ± 0.014 µg/mL, the Tmax stood at 4.8 min and the half-life was 107 ± 25.8 min. In addition, in data set [1] (setting [6]), the AUC(0-t) is 1.49 ± 0.072 µg·h/mL, the Cmax came out at 0.553 ± 0.053 µg/mL, the Tmax was 25.2 ± 7.2 min and the bioavailability came out at 85 ± 4%. Besides, the half-life in data set [1] (setting [6]) was 94.2 ± 6.6 min. Moreover, in data set [2], the EC50 turned out to be 0.0712 µM. The molecule also registered a Kp in data set [3] (brain homogenate and plasma) of 0.62 ± 0.05.
With `CC(C)n1nc(-c2nnc(C3CCN(C4CCC4)CC3)o2)c2ccccc21` [Example 37, 3-[5-(1-Cyclobutyl-piperidin-4-yl)-[1,3,4]oxadiazol-2-yl]-1-isopropyl-1H-indazole], the Kp in data set [3] (in vivo) is 5.68 ± 1.74.
`Nc1c(Cl)cc(-c2nnc(CCCN3CCCCC3)o2)c2c1CCCO2.O=C(O)C(O)C(O)C(=O)O` [Example 20, 6-Chloro-8-[5-(3-piperidin-1-yl-propyl)-[1,3,4]oxadiazol-2-yl]-chroman-5-ylamine tartarate salt]: in data set [1] (setting [7]), the AUC(0-t) worked out at 0.867 ± 0.173 µg·h/mL, the peak level (Cmax) was 0.976 ± 0.305 µg/mL, the Tmax worked out at 4.8 min and the half-life is 48 ± 3.6 min. For the same molecule, the bioavailability in data set [1] (setting [8]) is 46 ± 9%. In addition, in data set [1] (setting [9]), the AUC(0-t) turned out to be 0.79 ± 0.153 µg·h/mL, the Cmax was determined as 0.602 ± 0.035 µg/mL, the Tmax amounted to 15 min and the half-life was 61.8 ± 1.2 min. Also, in data set [4] (3 mg/kg), the “Exploration time mean ± S.E.M, Familiar object” value was determined as 4.69 ± 0.79 s; the “Exploration time mean ± S.E.M, Novel object” value turned out to be 11.04 ± 1.33 s; the Inference result is given as “Active”. Further, in data set [2], the EC50 was determined as 0.104 µM. This molecule displayed a Kp in data set [3] (brain homogenate and plasma) of 0.5 ± 0.07.
In data set [3] (in vivo), `CC(C)n1nc(-c2nnc(C3CCN(C4CCOCC4)CC3)o2)c2ccccc21` [Example 48, 1-Isopropyl-3-{5-[1-(tetrahydro-pyran-4-yl)-piperidin-4-yl]-[1,3,4]oxadiazol-2-yl}-1H-indazole oxalate salt] yielded a Kp of 2.55 ± 0.32.
Regarding `CCOC(=O)N1CCC(N2CCC(c3nnc(-c4cc(Cl)c(N)c5c4OCCC5)o3)CC2)CC1` [Example 19, 4-[5-(5-Amino-6-chloro-chroman-8-yl)-[1,3,4]oxadiazol-2-yl]-[1,4′]bipiperidinyl-1′-carboxylic acid ethyl ester], in data set [1] (setting [7]), the AUC(0-t) worked out at 2.37 ± 0.09 µg·h/mL, the highest level (Cmax) was 1.86 ± 0.115 µg/mL, the Tmax worked out at 4.8 min and the half-life was 133 ± 13.8 min. Besides, the bioavailability in data set [1] (setting [8]) turned out to be 101 ± 1%. In addition, in data set [1] (setting [9]), the AUC(0-t) amounted to 4.814 ± 0.03 µg·h/mL, the concentration peaked (Cmax) at 1.76 ± 0.264 µg/mL, the Tmax was determined as 30 min and the half-life is 88.8 ± 10.8 min. In data set [4] (10 mg/kg), the “Exploration time mean ± S.E.M, Familiar object” value was 7.19 ± 0.65 s; the “Exploration time mean ± S.E.M, Novel object” value turned out to be 13.21 ± 2.1 s; the Inference result is “Active”. Also, the half-maximal effective concentration (EC50) in data set [2] stood at 0.0068 µM.
Consider `Nc1c(Cl)cc(-c2nnc(C3CCN(CC4CCC4)CC3)o2)c2c1OCCO2` [Example 15, 6-Chloro-8-[5-(1-cyclobutylmethyl-piperidin-4-yl)-[1,3,4]oxadiazol-2-yl]-2,3-dihydro-benzo[1,4]dioxin-5-ylamine], for which, in data set [4] (1 mg/kg), the “Exploration time mean ± S.E.M, Familiar object” value was determined as 12.03 ± 1.73 s; the “Exploration time mean ± S.E.M, Novel object” value was determined as 19.14 ± 3.02 s; the Inference result is “Active”. Further, the EC50 in data set [2] was 0.0062 µM.
For the molecule `CC(C)CCN1CCC(c2nnc(-c3cc(Cl)c(N)c4c3OCCC4)o2)CC1` [Example 9, 6-Chloro-8-{5-[1-(3-methyl-butyl)-piperidin-4-yl]-[1,3,4]oxadiazol-2-yl}-chroman-5-ylamine], in data set [1] (setting [7]), the AUC(0-t) worked out at 0.836 ± 0.374 µg·h/mL, the Cmax came to 0.792 ± 0.111 µg/mL, the Tmax was 4.8 min and the half-life is 82.8 ± 39.6 min. Moreover, the bioavailability in data set [1] (setting [8]) is 66 ± 21%. Besides, in data set [1] (setting [9]), the AUC(0-t) is 1.21 ± 0.941 µg·h/mL, the highest level (Cmax) was 0.412 ± 0.177 µg/mL, the Tmax amounted to 40.2 ± 14.4 min and the half-life is 89.4 ± 38.4 min. Further, in data set [4] (3 mg/kg), the “Exploration time mean ± S.E.M, Familiar object” value is 11.21 ± 2.18 s; the “Exploration time mean ± S.E.M, Novel object” value stood at 16.47 ± 1.18 s; the Inference entry is recorded as “Active”. For the same molecule, the EC50 in data set [2] was 0.0024 µM.
Regarding `Nc1c(Cl)cc(-c2nnc(C3CCN(C4CCC4)CC3)o2)c2c1OCCO2` [Example 16, 6-Chloro-8-[5-(1-cyclobutyl-piperidin-4-yl)-[1,3,4]oxadiazol-2-yl]-2,3-dihydro-benzo[1,4]dioxin-5-ylamine], in data set [4] (10 mg/kg), the “Exploration time mean ± S.E.M, Familiar object” value stood at 8.03 ± 1.58 s; the “Exploration time mean ± S.E.M, Novel object” value came out at 13.94 ± 1.76 s; the Inference result is given as “Active”. Moreover, in data set [2], the EC50 was 0.0133 µM.
In the case of `COCCN1CCC(c2nnc(-c3cc(Cl)c(N)c4c3OCCC4)o2)CC1` [Example 8, 6-Chloro-8-{5-[1-(2-methoxy-ethyl)-piperidin-4-yl]-[1,3,4]oxadiazol-2-yl}-chroman-5-ylamine], in data set [1] (setting [7]), the exposure AUC(0-t) amounted to 1.32 ± 0.527 µg·h/mL, the concentration peaked (Cmax) at 1.28 ± 0.239 µg/mL, the Tmax worked out at 4.8 min and the half-life was 61.8 ± 8.4 min. Also, the bioavailability in data set [1] (setting [8]) amounted to 72 ± 22%. Also, in data set [1] (setting [9]), the AUC(0-t) came out at 1.77 ± 0.089 µg·h/mL, the peak level (Cmax) was 0.918 ± 0.046 µg/mL, the Tmax was 19.8 ± 8.4 min and the half-life was 60.6 ± 4.8 min. For the same molecule, in data set [4] (3 mg/kg), the “Exploration time mean ± S.E.M, Familiar object” value was found to be 10.45 ± 1.162 s; the “Exploration time mean ± S.E.M, Novel object” value was found to be 17.59 ± 2.95 s; the Inference entry was “Active”. Moreover, the EC50 in data set [2] was determined as 0.0156 µM. Further, the Kp in data set [3] (brain homogenate and plasma) is 0.56 ± 0.08.
Consider `Nc1c(Cl)cc(-c2nnc(C3CCN(C4CCC4)CC3)o2)c2c1CCCO2` [Example 14, 6-Chloro-8-[5-(1-cyclobutyl-piperidin-4-yl)-[1,3,4]oxadiazol-2-yl]-chroman-5-ylamine], for which, in data set [1] (setting [7]), the AUC(0-t) is 0.773 ± 0.045 µg·h/mL, the peak concentration (Cmax) is 0.783 ± 0.124 µg/mL, the Tmax is 4.8 min and the half-life is 73.2 ± 15.6 min. Moreover, in data set [1] (setting [8]), the bioavailability worked out at 42 ± 10%. For the same molecule, in data set [1] (setting [9]), the AUC(0-t) stood at 0.645 ± 0.136 µg·h/mL, the concentration peaked (Cmax) at 0.513 ± 0.125 µg/mL, the Tmax was found to be 15 min and the half-life was 57.6 ± 6.6 min. Moreover, in data set [4] (1 mg/kg), the “Exploration time mean ± S.E.M, Familiar object” value was 5.06 ± 1.32 s; the “Exploration time mean ± S.E.M, Novel object” value turned out to be 12.68 ± 1.14 s; the Inference result is listed as “Active”. Moreover, in data set [2], the EC50 came to 0.0013 µM. The “Reversal of Scopolamine Induced amnesia - Effective dose range” value in data set [5] was 1-10 mg/kg, p.o. Also, in data set [3] (brain homogenate and plasma), the Kp was 2.24 ± 0.09.
Regarding `Nc1c(Cl)cc(-c2nnc(C3CCN(CC4CCOCC4)CC3)o2)c2c1CCCO2.O=C(O)C(=O)O` [Example 26, 6-Chloro-8-{5-[1-(tetrahydro-pyran-4-ylmethyl)-piperidin-4-yl]-[1,3,4]oxadiazol-2-yl}-chroman-5-ylamine oxalate salt], in data set [4] (3 mg/kg), the “Exploration time mean ± S.E.M, Familiar object” value worked out at 7.12 ± 1.44 s; the “Exploration time mean ± S.E.M, Novel object” value came out at 14.42 ± 2.22 s; the Inference result was “Active”. Moreover, the EC50 in data set [2] turned out to be 0.018 µM.
